Measurements as given in ChEMBL document CHEMBL5678810.

Legend:
[1] = target: SRSF protein kinase 2 (Homo sapiens) (UniProt P78362); test: Inhibition of T7 bacteriophage fused human SRPK2 at 10 uM by KINOMEscan analysis relative to control
[2] = target: Tyrosine-protein kinase Srms (Homo sapiens) (UniProt Q9H3Y6); test: Inhibition of T7 bacteriophage fused human SRMS at 10 uM by KINOMEscan analysis relative to control
[3] = target: Proto-oncogene tyrosine-protein kinase Src (Homo sapiens) (UniProt P12931); test: Inhibition of T7 bacteriophage fused human SRC at 10 uM by KINOMEscan analysis relative to control
[4] = Inhibition of T7 bacteriophage fused Plasmodium falciparum CDPK1 at 10 uM by KINOMEscan analysis relative to control; details: condition cancer
[5] = target: Serine/threonine-protein kinase 33 (Homo sapiens) (UniProt Q9BYT3); test: Inhibition of T7 bacteriophage fused human STK33 at 10 uM by KINOMEscan analysis relative to control
[6] = target: Serine/threonine-protein kinase 35 (Homo sapiens) (UniProt Q8TDR2); test: Inhibition of T7 bacteriophage fused human STK35 at 10 uM by KINOMEscan analysis relative to control
[7] = target: Serine/threonine-protein kinase SIK1 (Homo sapiens) (UniProt P57059); test: Inhibition of T7 bacteriophage fused human SIK at 10 uM by KINOMEscan analysis relative to control
[8] = target: Serine/threonine-protein kinase tousled-like 2 (Homo sapiens) (UniProt Q86UE8); test: Inhibition of T7 bacteriophage fused human TLK2 at 10 uM by KINOMEscan analysis relative to control
[9] = target: Microtubule-associated serine/threonine-protein kinase 1 (Homo sapiens) (UniProt Q9Y2H9); test: Inhibition of T7 bacteriophage fused human MAST1 at 10 uM by KINOMEscan analysis relative to control; values are per cent of control
Chain of Microtubule-associated serine/threonine-protein kinase 1 (Homo sapiens) (Q9Y2H9 whole entry, looked up, the tested form may be a part): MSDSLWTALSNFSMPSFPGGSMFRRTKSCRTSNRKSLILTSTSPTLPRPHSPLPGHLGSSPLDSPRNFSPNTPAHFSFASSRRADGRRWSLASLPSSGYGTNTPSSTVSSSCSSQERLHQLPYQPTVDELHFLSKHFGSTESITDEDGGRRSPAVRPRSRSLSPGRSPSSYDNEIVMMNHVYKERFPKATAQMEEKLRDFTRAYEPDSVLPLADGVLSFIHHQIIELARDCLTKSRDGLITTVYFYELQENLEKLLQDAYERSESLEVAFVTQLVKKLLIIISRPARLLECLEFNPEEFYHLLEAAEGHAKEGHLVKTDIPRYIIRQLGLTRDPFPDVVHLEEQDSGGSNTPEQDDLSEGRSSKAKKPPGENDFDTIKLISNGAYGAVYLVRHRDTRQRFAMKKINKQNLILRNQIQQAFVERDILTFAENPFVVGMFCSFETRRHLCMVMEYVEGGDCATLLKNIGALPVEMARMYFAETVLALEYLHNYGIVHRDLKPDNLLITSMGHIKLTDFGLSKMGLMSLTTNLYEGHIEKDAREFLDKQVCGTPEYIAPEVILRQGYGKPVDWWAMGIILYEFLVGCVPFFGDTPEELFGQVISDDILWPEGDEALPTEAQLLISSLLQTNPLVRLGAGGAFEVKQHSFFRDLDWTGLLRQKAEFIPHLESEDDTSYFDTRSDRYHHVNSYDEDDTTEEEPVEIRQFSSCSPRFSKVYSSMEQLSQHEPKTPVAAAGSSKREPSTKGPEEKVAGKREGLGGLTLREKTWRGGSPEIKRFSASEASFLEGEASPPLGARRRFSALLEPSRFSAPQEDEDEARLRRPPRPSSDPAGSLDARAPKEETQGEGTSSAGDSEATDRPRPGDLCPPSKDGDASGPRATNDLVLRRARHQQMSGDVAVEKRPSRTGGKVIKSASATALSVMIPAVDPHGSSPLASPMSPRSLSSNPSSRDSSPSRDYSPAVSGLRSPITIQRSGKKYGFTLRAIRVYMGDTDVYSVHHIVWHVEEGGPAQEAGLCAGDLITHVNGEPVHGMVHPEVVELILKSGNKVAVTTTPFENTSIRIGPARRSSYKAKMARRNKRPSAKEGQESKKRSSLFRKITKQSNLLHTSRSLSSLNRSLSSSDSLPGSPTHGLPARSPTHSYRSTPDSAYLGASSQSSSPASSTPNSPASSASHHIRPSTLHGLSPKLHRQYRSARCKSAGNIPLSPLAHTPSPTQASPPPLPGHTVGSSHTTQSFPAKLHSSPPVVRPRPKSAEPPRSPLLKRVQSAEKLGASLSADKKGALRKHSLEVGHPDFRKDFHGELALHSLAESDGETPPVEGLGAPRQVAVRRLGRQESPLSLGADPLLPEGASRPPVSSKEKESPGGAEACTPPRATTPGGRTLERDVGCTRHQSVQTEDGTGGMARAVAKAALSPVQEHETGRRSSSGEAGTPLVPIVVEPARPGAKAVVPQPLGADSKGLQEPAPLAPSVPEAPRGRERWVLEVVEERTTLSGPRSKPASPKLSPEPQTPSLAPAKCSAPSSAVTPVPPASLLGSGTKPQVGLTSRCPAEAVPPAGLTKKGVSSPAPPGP

[10] = target: Non-receptor tyrosine-protein kinase TYK2 (Homo sapiens) (UniProt P29597); test: Inhibition of T7 bacteriophage fused human TYK2 JH1 catalytic domain at 10 uM by KINOMEscan analysis relative to control
[11] = target: Serine/threonine-protein kinase Sgk3 (Homo sapiens) (UniProt Q96BR1); test: Inhibition of T7 bacteriophage fused human SGK3 at 10 uM by KINOMEscan analysis relative to control
[12] = target: NT-3 growth factor receptor (Homo sapiens) (UniProt Q16288); test: Inhibition of T7 bacteriophage fused human TRKC at 10 uM by KINOMEscan analysis relative to control
[13] = target: High affinity nerve growth factor receptor (Homo sapiens) (UniProt P04629); test: Inhibition of T7 bacteriophage fused human TRKA at 10 uM by KINOMEscan analysis relative to control
Chain of High affinity nerve growth factor receptor (Homo sapiens) (P04629 33-796 limits assumed): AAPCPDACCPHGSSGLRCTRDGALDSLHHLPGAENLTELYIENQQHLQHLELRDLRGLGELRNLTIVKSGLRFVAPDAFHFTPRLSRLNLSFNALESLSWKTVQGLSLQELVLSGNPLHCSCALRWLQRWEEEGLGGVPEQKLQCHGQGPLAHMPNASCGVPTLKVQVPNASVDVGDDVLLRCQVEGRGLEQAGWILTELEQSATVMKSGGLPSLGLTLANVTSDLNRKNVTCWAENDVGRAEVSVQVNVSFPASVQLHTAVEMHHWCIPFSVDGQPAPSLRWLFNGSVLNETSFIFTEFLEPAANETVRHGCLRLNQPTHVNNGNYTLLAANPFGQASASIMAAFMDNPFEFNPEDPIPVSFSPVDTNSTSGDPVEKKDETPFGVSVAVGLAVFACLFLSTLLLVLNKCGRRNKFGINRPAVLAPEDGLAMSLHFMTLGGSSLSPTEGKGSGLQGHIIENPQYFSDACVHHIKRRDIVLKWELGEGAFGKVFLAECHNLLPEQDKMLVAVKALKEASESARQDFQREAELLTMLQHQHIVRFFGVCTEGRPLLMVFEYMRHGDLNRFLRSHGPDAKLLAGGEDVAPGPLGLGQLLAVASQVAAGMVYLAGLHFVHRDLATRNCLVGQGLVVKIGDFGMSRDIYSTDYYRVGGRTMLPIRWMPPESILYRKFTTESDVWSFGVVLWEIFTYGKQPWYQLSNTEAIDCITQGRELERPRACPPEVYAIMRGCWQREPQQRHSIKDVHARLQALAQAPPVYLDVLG

[14] = target: SRSF protein kinase 3 (Homo sapiens) (UniProt Q9UPE1); test: Inhibition of T7 bacteriophage fused human SRPK3 at 10 uM by KINOMEscan analysis relative to control
[15] = target: Cyclin-dependent kinase 2 homolog (Plasmodium falciparum (isolate K1 / Thailand)) (UniProt Q07785); test: Inhibition of T7 bacteriophage fused Plasmodium falciparum PK5 at 10 uM by KINOMEscan analysis relative to control
[16] = target: Peripheral plasma membrane protein CASK (Homo sapiens) (UniProt O14936); test: Inhibition of T7 bacteriophage fused human CASK at 10 uM by KINOMEscan analysis relative to control
Chain of Peripheral plasma membrane protein CASK (Homo sapiens) (O14936 whole entry, looked up, the tested form may be a part): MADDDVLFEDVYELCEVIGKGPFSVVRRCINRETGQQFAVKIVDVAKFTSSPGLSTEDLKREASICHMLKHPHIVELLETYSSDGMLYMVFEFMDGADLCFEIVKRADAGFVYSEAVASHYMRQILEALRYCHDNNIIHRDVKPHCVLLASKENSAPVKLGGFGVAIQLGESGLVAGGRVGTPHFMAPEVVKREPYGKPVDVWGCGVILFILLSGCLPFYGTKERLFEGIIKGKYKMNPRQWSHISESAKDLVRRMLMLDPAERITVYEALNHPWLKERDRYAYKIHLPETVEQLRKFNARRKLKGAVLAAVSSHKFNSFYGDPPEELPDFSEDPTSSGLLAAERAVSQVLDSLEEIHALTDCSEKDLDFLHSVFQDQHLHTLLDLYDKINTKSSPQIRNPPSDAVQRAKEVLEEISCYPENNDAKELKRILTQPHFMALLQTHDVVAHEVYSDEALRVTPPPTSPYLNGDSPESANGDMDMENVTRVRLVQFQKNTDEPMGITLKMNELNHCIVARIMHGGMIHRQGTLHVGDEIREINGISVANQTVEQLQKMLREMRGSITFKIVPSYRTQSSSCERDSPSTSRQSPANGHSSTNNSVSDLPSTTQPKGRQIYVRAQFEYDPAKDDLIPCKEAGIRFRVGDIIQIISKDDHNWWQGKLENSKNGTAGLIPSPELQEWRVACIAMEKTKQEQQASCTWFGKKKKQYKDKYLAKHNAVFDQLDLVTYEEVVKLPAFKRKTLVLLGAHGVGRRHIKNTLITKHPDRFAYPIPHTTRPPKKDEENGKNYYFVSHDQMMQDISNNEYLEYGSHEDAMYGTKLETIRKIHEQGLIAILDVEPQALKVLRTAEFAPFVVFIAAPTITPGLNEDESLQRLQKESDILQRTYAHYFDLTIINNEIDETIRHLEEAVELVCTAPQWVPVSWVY

[17] = target: Testis-specific serine/threonine-protein kinase 1 (Homo sapiens) (UniProt Q9BXA7); test: Inhibition of T7 bacteriophage fused human TSSK1B at 10 uM by KINOMEscan analysis relative to control
[18] = target: Serine/threonine-protein kinase VRK2 (Homo sapiens) (UniProt Q86Y07); test: Inhibition of T7 bacteriophage fused human VRK2 at 10 uM by KINOMEscan analysis relative to control
[19] = target: Serine/threonine-protein kinase TAO3 (Homo sapiens) (UniProt Q9H2K8); test: Inhibition of T7 bacteriophage fused human TAOK3 at 10 uM by KINOMEscan analysis relative to control
Chain of Serine/threonine-protein kinase TAO3 (Homo sapiens) (Q9H2K8 whole entry, the tested form may be a part): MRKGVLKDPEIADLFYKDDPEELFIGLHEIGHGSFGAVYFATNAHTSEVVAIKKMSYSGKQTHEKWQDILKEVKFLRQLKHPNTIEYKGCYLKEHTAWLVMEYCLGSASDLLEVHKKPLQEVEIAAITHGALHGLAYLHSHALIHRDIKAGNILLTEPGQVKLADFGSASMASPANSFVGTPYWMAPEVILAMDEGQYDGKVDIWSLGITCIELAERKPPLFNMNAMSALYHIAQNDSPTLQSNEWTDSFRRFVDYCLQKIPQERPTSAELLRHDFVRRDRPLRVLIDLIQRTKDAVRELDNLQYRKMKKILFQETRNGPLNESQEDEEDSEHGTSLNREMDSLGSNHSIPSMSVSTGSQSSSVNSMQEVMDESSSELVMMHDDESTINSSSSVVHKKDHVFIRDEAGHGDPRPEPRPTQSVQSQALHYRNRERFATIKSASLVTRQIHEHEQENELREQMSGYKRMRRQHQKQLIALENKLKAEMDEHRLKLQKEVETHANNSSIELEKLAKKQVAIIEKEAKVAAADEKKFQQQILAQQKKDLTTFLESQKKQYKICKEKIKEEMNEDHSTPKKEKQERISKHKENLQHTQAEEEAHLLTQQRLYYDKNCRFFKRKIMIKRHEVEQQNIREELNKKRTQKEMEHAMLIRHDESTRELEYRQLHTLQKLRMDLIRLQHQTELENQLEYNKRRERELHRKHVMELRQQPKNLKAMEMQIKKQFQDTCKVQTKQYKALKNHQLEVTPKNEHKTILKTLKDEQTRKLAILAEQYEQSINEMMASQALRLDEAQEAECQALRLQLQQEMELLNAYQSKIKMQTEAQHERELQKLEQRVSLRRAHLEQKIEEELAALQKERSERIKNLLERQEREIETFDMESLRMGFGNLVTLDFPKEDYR

[20] = target: Transient receptor potential cation channel subfamily M member 6 (Homo sapiens) (UniProt Q9BX84); test: Inhibition of T7 bacteriophage fused human TRPM6 at 10 uM by KINOMEscan analysis relative to control
[21] = target: T1, Dual specificity protein kinase TTK (Homo sapiens) (UniProt P33981); test: Inhibition of T7 bacteriophage fused human TTK at 10 uM by KINOMEscan analysis relative to control
T1 sequence (whole entry): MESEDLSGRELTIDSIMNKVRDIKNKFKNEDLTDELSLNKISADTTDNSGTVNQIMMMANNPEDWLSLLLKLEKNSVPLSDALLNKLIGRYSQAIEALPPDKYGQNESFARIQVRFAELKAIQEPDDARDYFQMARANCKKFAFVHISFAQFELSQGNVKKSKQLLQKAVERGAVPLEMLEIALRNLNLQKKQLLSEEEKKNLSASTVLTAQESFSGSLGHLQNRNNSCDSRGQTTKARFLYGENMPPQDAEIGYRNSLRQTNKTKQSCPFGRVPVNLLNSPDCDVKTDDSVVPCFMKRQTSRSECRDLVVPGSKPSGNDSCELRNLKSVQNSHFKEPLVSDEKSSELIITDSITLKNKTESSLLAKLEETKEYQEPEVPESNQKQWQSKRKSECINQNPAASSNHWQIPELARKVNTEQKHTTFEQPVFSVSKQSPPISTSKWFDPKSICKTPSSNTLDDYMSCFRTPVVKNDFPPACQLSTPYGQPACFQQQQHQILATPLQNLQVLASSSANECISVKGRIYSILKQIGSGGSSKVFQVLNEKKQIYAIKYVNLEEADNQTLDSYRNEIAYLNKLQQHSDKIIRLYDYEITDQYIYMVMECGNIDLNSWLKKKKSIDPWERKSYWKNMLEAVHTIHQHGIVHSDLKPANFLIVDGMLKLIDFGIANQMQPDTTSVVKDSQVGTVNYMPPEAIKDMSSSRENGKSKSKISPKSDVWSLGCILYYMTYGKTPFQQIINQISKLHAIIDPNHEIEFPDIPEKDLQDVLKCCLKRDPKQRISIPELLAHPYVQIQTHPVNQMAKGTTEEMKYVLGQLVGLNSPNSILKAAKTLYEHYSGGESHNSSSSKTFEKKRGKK

[22] = target: NUAK family SNF1-like kinase 2 (Homo sapiens) (UniProt Q9H093); test: Inhibition of T7 bacteriophage fused human SNARK at 10 uM by KINOMEscan analysis relative to control
[23] = target: BDNF/NT-3 growth factors receptor (Homo sapiens) (UniProt Q16620); test: Inhibition of T7 bacteriophage fused human TRKB at 10 uM by KINOMEscan analysis relative to control
Chain of BDNF/NT-3 growth factors receptor (Homo sapiens) (Q16620 32-822 limits assumed): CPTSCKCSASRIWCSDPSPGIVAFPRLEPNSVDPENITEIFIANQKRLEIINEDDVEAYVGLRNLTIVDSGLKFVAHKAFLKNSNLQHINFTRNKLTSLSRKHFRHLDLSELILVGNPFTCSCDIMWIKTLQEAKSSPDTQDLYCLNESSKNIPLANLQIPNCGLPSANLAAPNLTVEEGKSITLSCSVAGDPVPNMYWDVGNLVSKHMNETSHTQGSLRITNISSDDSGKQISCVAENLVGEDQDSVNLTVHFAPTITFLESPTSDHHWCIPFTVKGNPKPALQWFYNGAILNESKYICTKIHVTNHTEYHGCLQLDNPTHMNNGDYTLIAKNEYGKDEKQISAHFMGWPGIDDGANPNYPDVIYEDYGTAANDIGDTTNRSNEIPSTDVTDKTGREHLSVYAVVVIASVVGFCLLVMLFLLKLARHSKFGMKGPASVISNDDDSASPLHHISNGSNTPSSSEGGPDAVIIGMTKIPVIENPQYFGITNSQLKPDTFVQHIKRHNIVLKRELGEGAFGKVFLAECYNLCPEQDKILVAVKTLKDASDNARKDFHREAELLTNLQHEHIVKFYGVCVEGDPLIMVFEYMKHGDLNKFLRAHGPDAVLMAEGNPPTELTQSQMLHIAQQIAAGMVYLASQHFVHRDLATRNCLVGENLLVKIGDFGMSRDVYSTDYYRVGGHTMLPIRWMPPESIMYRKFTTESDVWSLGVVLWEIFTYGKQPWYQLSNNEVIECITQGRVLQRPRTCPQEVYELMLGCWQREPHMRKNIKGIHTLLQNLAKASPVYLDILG

[24] = target: SNF-related serine/threonine-protein kinase (Homo sapiens) (UniProt Q9NRH2); test: Inhibition of T7 bacteriophage fused human SNRK at 10 uM by KINOMEscan analysis relative to control

Row | Structure (SMILES) | inhibition [1] | inhibition [2] | inhibition [3] | inhibition at 10 µM [4] | inhibition [5] | inhibition [6] | inhibition [7] | inhibition [8] | residual activity [9] | inhibition [10] | inhibition [11] | inhibition [12] | inhibition [13] | inhibition [14] | inhibition [15] | inhibition [16] | inhibition [17] | inhibition [18] | inhibition [19] | inhibition [20] | further results
1 | COc1cc(N2CCC(N3CCN(C)CC3)CC2)ccc1Nc1ncc2c(n1)N(C)c1ccccc1C(=O)N2C | 100% | 77% | 100% | 100% | 10% | 100% | 77% | 99% | 100% | 52% | 95% | 100% | 69% | 72% | 100% | 85% | 60% | 99% | 24% | 100% | inhibition [21]: 28%; inhibition [22]: 47%; inhibition [23]: 100%; inhibition [24]: 94%
2 | CCOc1cc(C(=O)N2CCC(N3CCN(C)CC3)CC2)ccc1Nc1ncc2c(n1)N(C1CCCC1)c1ccccc1C(=O)N2C | 100% | – | 100% | 100% | 100% | – | 100% | 100% | 100% | – | – | – | 100% | 100% | 100% | – | 100% | – | – | – | inhibition [21]: 49%; inhibition [23]: 100%; inhibition [24]: 52%
3 | COc1cc(C(=O)N2CCC(N3CCN(C)CC3)CC2)ccc1Nc1ncc2c(n1)N(C1CCCC1)c1ccccc1C(=O)N2C | – | 100% | – | – | – | 100% | – | – | – | 100% | 100% | 100% | – | – | – | 100% | – | 100% | 100% | 100% | inhibition [22]: 100%
